From patent US6346514B1, “Pharmaceutical lysine-containing polypeptide compositions and methods of use thereof” (priority 1991, dated 2002)

Assays:
[1] = system: methicillin resistant Staphylococcus aureus; conditions: methicillin-resistant S. aureus (MR); s.c. in the hour subsequent to inoculation; previous studies; cited from earlier work
[2] = system: methicillin-resistant S. aureus; conditions: S. aureus (MR); s.c. in the hour subsequent to inoculation; cited from earlier work
[3] = system: methicillin resistant Staphylococcus aureus; test: Survival of mice inoculated with 10xLD50 S. aureus, EK pretreatment with or without Ampicillin; format: in vivo
Procedure: Animals were inoculated intraperitoneally with 10×LD50 of a Staphylococcus aureus suspended in brain-heart infusion broth containing 5 percent mucin. […] If significant prevention of mortality (>50 percent survival) was observed, the minimum effective dose (MED) was determined.
Two control experiments were initially conducted. […] No antibiotic was administered to this group. The number of survivors at 72 hours was determined. […] The number of survivors at 72 hours was recorded.
Survival statistics were determined over the periods of 12, 24, 36, 48, and 72 hours. […] Survival statistics were determined over the periods 12, 23,36, 48, and 72 hours. FIG. 1 illustrates the experimental protocol.

microbial growth = test: Bacterial culture experiments with EK; format: cell-based; conditions: concentrations exceeding 1000 times the administered dose to animals
[4] = 12 HOURS after inoculation, EK 10 mcg/kg
[5] = 12 HOURS after inoculation, EK 100 mcg/kg
[6] = 12 HOURS after inoculation, EK 1000 mcg/kg
[7] = 24 HOURS after inoculation, EK 10 mcg/kg
[8] = 24 HOURS after inoculation, EK 100 mcg/kg
[9] = 24 HOURS after inoculation, EK 1000 mcg/kg
[10] = 36 HOURS after inoculation, EK 10 mcg/kg
[11] = 36 HOURS after inoculation, EK 100 mcg/kg
[12] = 36 HOURS after inoculation, EK 1000 mcg/kg
[13] = 48 HOURS after inoculation, EK 10 mcg/kg
[14] = 48 HOURS after inoculation, EK 100 mcg/kg
[15] = 48 HOURS after inoculation, EK 1000 mcg/kg
[16] = 72 HOURS after inoculation, EK 10 mcg/kg
[17] = 72 HOURS after inoculation, EK 100 mcg/kg
[18] = 72 HOURS after inoculation, EK 1000 mcg/kg

For `CC1(C)S[C@@H]2[C@H](NC(=O)[C@H](N)c3ccccc3)C(=O)N2[C@H]1C(=O)O` [Amp, Ampicillin], the “MED (minimum effective dose)” value [1] is given as “greater than 100 mg/kg” and the “MED (minimum effective dose)” value [2] is given as “greater than 100 mg/kg”.
With Glu-Lys [EK] the Deaths [3, 4] was 0, the Survival [3, 4] was 100.00% and the Survivors [3, 4] was 18. For the same molecule, the Deaths [3, 5] was 2, the Survival [3, 5] was 88.89% and the Survivors [3, 5] was 16. It also gave a Deaths [3, 6] of 1, a Survival [3, 6] of 94.44% and a Survivors [3, 6] of 17. For the same molecule, the Deaths [3, 7] was 5, the Survival [3, 7] was 72.22% and the Survivors [3, 7] was 13. It also gave a Deaths [3, 8] of 5, a Survival [3, 8] of 72.22% and a Survivors [3, 8] of 13. For the same molecule, the Deaths [3, 9] was 1, the Survival [3, 9] was 94.44% and the Survivors [3, 9] was 17. For the same molecule, the Deaths [3, 10] was 9, the Survival [3, 10] was 50.00% and the Survivors [3, 10] was 9. The Deaths [3, 11] was 9, the Survival [3, 11] was 50.00% and the Survivors [3, 11] was 9. For the same molecule, the Deaths [3, 12] was 4, the Survival [3, 12] was 77.78% and the Survivors [3, 12] was 14. It also gave a Deaths [3, 13] of 13, a Survivors [3, 13] of 5 and a Deaths [3, 14] of 13. For the same molecule, the Survivors [3, 14] was 5, the Deaths [3, 15] was 10 and the Survival [3, 15] was 44.44%. For the same molecule, the Survivors [3, 15] was 8, the Deaths [3, 16] was 13 and the Survivors [3, 16] was 5. It also gave a Deaths [3, 17] of 13, a Survivors [3, 17] of 5 and a Deaths [3, 18] of 11. For the same molecule, the Survival [3, 18] was 38.89%, the Survivors [3, 18] was 7 and the “survival after normally lethal i.p. dose of S. aureus” value ([3]; EK pretreatment) was “dramatic improvement in survival”. The “Survival” value ([3]; at 36 hours, across EK dose groups) was at most 78%, the “Survival” value ([3]; by 72 hours, across EK dose groups) was “at least 27%” and the “activity on microbial growth” value (microbial growth) was “no inhibitory nor suppressive activity”.
